Data from US7399744B2, “Methods for affecting body composition” (Amylin Pharmaceuticals, Inc., priority 2004, dated 2008).
Bridge positions count the residues as written; N and C are the ends. Peptide text beside a SMILES is read from it.

Tests used:
[1] = tested on: insulin-stimulated glycogen synthesis in soleus muscle; assay: Soleus muscle assay; format: cell-based; conditions: rat soleus muscle, inhibition of glucose incorporation into glycogen
Procedure: Concentrations of peptide dissolved in carrier-free buffers are determined by quantitative amino acid analysis, as described therein. The ability of compounds to act as agonists in this assay is determined by measuring EC50 values. […] Similar results were obtained with other agonist compounds listed above.

[2] = target: T1, amylin receptors (Rattus norvegicus, UniProt P32214+Q9JJ74); assay: Receptor binding assay (competition with 125I Bolton Hunter rat amylin, basal forebrain membranes)
T1 construct: This basal forebrain tissue, containing the nucleus accumbens and surrounding regions, was weighed and homogenized; from tissue; host or cells: rat basal forebrain (nucleus accumbens and surrounding regions) membranes
T1 sequence (P32214 25-516): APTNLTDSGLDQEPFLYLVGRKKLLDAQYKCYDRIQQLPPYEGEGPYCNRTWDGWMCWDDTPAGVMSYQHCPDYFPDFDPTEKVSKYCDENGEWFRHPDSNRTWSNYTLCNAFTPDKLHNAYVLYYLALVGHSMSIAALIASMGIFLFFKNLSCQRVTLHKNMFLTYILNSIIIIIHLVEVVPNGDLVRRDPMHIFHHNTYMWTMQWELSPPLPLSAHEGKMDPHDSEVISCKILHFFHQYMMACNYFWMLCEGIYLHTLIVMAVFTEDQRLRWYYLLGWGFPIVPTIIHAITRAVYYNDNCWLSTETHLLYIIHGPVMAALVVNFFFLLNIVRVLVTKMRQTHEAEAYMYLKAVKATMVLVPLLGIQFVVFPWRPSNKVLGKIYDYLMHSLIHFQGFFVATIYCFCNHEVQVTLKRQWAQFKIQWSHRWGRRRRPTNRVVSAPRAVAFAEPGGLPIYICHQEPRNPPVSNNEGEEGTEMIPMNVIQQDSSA
T1 sequence (Q9JJ74 27-148): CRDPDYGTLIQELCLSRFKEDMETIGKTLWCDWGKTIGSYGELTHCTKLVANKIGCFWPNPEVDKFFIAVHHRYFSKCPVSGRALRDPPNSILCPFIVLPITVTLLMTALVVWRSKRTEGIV
Text: A preferred source of the membrane preparations used in the assay is the basal forebrain which comprises membranes from the nucleus accumbens and surrounding regions.
Unlabeled peptides were obtained from BACHEM Inc. (Torrance, Calif.) and Peninsula Laboratories (Belmont, Calif.).
Male Sprague-Dawley rats (200-250) grams were sacrificed by decapitation. Brains were removed to cold phosphate-buffered saline (PBS). From the ventral surface, cuts were made rostral to the hypothalamus, bounded laterally by the olfactory tracts and extending at a 45° angle medially from these tracts. This basal forebrain tissue, containing the nucleus accumbens and surrounding regions, was weighed and homogenized in ice-cold 20 mM HEPES buffer (20 mM HEPES acid, pH adjusted to 7.4 with NaOH at 23° C.). […] The final membrane pellet was resuspended in 20 mM HEPES buffer containing 0.2 mM phenylmethylsulfonyl fluoride (PMSF).
Solutions were incubated for 60 minutes at 23° C. […] Filters were washed immediately before filtration with 5 ml cold PBS, and immediately after filtration with 15 ml cold PBS.

CC[C@H](C)[C@H](NC(=O)[C@H](C)NC(=O)CNC(=O)[C@H](Cc1ccccc1)NC(=O)[C@H](CC(N)=O)NC(=O)[C@H](CC(N)=O)NC(=O)[C@H](CO)NC(=O)[C@H](CO)NC(=O)[C@H](Cc1c[nH]cn1)NC(=O)[C@@H](NC(=O)[C@H](CC(C)C)NC(=O)[C@H](Cc1ccccc1)NC(=O)[C@H](CC(N)=O)NC(=O)[C@H](C)NC(=O)[C@H](CC(C)C)NC(=O)[C@H](CCCNC(=N)N)NC(=O)[C@H](CCC(N)=O)NC(=O)[C@@H](NC(=O)[C@H](C)NC(=O)[C@@H]1CCCCNC(=O)C[C@H](NC(=O)[C@@H](N)CCCCN)C(=O)N[C@@H](CC(N)=O)C(=O)N[C@@H]([C@@H](C)O)C(=O)N[C@@H](C)C(=O)N[C@@H]([C@@H](C)O)C(=O)N1)[C@@H](C)O)C(C)C)C(=O)N[C@@H](CC(C)C)C(=O)N[C@@H](CO)C(=O)N[C@@H](CO)C(=O)N[C@H](C(=O)N[C@@H](CC(N)=O)C(=O)N[C@H](C(=O)NCC(=O)N[C@@H](CO)C(=O)N[C@@H](CC(N)=O)C(=O)N[C@H](C(=O)N[C@@H](Cc1ccc(O)cc1)C(N)=O)[C@@H](C)O)C(C)C)[C@@H](C)O [^2,7Cyclo-[^2Asp,^7Lys]-h-Amylin] (H-KDNTATKATQRLANFLVHSSNNFGAILSSTNVGSNTY-NH2; lactam 2-7; N-terminus and C-terminus assumed)
EC50 [1]: 6.62 nM | IC50 [2]: 0.31 nM
